Laboratory results taken from US10329295B2, “Pyrrolotriazine inhibitors of IRAK4 activity” (MERCK SHARP & DOHME CORP., priority 2015, dated 2019).
Counter-ions that a name gives are not always drawn.

Each compound was assayed against GST tagged IRAK4 (Homo sapiens (Human), UniProt Q9NWZ3) (assay: IRAK4 Kinase Assay (IMAP fluorescence polarization)). Details: 0.5 nM GST tagged IRAK4, 100 μM ATP, 30 minutes at 25° C.
Format: biochemical
Method in brief: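 Reactions contained 0.5 nM GST-IRAK4, 100 nM fluorescent peptide substrate and 100 μM ATP in 10 mM Tris-HCl pH 7.2 with 1 mM MgCl2, and were started with ATP. After 30 minutes at 25° C they were stopped with IMAP reagent. Substrate phosphorylation was read as the change in fluorescence polarization.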

Chain of GST tagged IRAK4 (Q9NWZ3 whole entry): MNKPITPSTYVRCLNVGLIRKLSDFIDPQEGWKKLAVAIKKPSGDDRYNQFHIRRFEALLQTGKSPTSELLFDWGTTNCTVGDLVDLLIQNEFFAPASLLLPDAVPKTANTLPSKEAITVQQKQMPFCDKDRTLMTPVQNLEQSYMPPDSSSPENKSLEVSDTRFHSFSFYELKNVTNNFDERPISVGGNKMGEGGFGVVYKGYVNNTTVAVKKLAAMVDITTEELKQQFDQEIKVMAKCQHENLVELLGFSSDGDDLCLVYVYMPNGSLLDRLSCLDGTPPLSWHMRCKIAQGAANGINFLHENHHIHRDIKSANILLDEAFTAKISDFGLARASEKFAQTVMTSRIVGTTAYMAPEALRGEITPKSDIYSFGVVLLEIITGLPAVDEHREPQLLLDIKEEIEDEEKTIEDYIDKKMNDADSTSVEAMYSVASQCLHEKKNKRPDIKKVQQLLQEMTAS

Point of comparison: `N#Cc1sccc1NC(=O)c1ccc2cnc(N[C@@H]3CCCNC3)nn12` [Example 146, N-(2-cyanothiophen-3-yl)-2-[(3R)-piperidin-3-ylamino]pyrrolo[2,1-f][1,2,4]triazine-7-carboxamide trifluoroacetate], IC50 0.004 µM. Against it:
- Cn1cc(NC(=O)c2ccc3cnc(N4CCC[C@H](N)C4)nn23)c(C#N)n1 [Example 123, 2-[(3S)-3-aminopiperidin-1-yl]-N-(3-cyano-1-methyl-1H-pyrazol-4-yl)pyrrolo[2,1-f][1,2,4]triazine-7-carboxamide trifluoroacetate] — 4-fold lower, 0.001 µM
- O=C(Nc1ccccc1Cl)c1ccc2cnc(N3C[C@H]4CC[C@@H]3CN4)nn12 (single isomer, unassigned) [Example 55, N-(2-chlorophenyl)-2-[(1S,4S)- or (1R,4R)-2,5-diazabicyclo[2.2.2]oct-2-yl]pyrrolo[2,1-f][1,2,4]triazine-7-carboxamide trifluoroacetate] — 140-fold higher, 0.557 µM
- Cn1cc(NC(=O)c2ccc3cnc(N[C@@H]4CNC[C@@H](F)C4)nn23)c(C(F)F)n1 [Example 164, N-[3-(difluoromethyl)-1-methyl-1H-pyrazol-4-yl]-2-{[(3S,5S)-5-fluoropiperidin-3-yl]amino}pyrrolo[2,1-f][1,2,4]triazine-7-carboxamide] — 8-fold lower, 0.0005 µM
- Cn1cc(NC(=O)c2ccc3cnc(N4CC5CCC(C4)N5)nn23)c(C#N)n1 [Example 110, N-(3-cyano-1-methyl-1H-pyrazol-4-yl)-2-(3,8-diazabicyclo[3.2.1]oct-3-yl)pyrrolo[2,1-f][1,2,4]triazine-7-carboxamide trifluoroacetate] — 29-fold higher, 0.117 µM
- Cn1cc(NC(=O)c2ccc3cnc(N4CCC[C@@H](N)C4)nn23)c(C(F)(F)F)n1 [Example 7, 2-[(3R)-3-aminopiperidin-1-yl]-N-[1-methyl-3-(trifluoromethyl)-1H-pyrazol-4-yl]pyrrolo[2,1-f][1,2,4]triazine-7-carboxamide trifluoroacetate] — 4.4-fold lower, 0.0009 µM
- Cn1cc(NC(=O)c2ccc3cnc(N4C[C@@H]5CN[C@@H](C5)C4)nn23)c(C(F)F)n1 (single isomer, unassigned) [Example 103, 2-[(1S,5S)- or (1R,5R)-3,6-diazabicyclo[3.2.1]oct-3-yl]-N-[3-(difluoromethyl)-1-methyl-1H-pyrazol-4-yl]pyrrolo[2,1-f][1,2,4]triazine-7-carboxamide] — 2.5-fold higher, 0.01 µM
- O=C(Nc1cscc1Br)c1ccc2cnc(N3CC4CCC3CN4)nn12 (centres unmarked) [Example 24, N-(4-bromothiophen-3-yl)-2-(2,5-diazabicyclo[2.2.2]oct-2-yl)pyrrolo[2,1-f][1,2,4]triazine-7-carboxamide trifluoroacetate] — 170-fold higher, 0.68 µM
- Cn1cc(NC(=O)c2ccc3cnc(N4CCC[C@@H](N)C4)nn23)c(C#N)n1 [Example 125, 2-[(3R)-3-aminopiperidin-1-yl]-N-(3-cyano-1-methyl-1H-pyrazol-4-yl)pyrrolo[2,1-f][1,2,4]triazine-7-carboxamide trifluoroacetate] — 4-fold lower, 0.001 µM
- Cn1cc(NC(=O)c2ccc3cnc(N4C[C@@H](N)C[C@@H](F)C4)nn23)c(C(F)F)n1 [Example 151, 2-[(3S,5R)-3-amino-5-fluoropiperidin-1-yl]-N-[3-(difluoromethyl)-1-methyl-1H-pyrazol-4-yl]pyrrolo[2,1-f][1,2,4]triazine-7-carboxamide formate] — 5-fold lower, 0.0008 µM
- Cn1cc(NC(=O)c2ccc3cnc(N[C@@H]4CCCC[C@@H]4O)nn23)c(C(F)F)n1 [Example 17, N-[3-(difluoromethyl)-1-methyl-1H-pyrazol-4-yl]-2-{[(1R,2S)-2-hydroxycyclohexyl]amino}-pyrrolo[2,1-f][1,2,4]triazine-7-carboxamide trifluoroacetate] — the same, 0.004 µM
- Cn1cc(NC(=O)c2ccc3cnc(N4C[C@@H]5CNC[C@H]4C5)nn23)c(C(F)F)n1 (single isomer, unassigned) [Example 119, 2-[(1S,5R)- or (1R,5S)-3,6-diazabicyclo[3.2.1]oct-6-yl]-N-[3-(difluoromethyl)-1-methyl-1H-pyrazol-4-yl]pyrrolo[2,1-f][1,2,4]triazine-7-carboxamide] — 2-fold lower, 0.002 µM
- O=C(Nc1ccccc1C(F)F)c1ccc2cnc(N3CCCNCC3)nn12 [Example 57, 2-(1,4-diazepan-1-yl)-N-[2-(difluoromethyl)phenyl]-pyrrolo[2,1-f][1,2,4]triazine-7-carboxamide trifluoroacetate] — 1600-fold higher, 6.57 µM
- N#Cc1sccc1NC(=O)c1ccc2cnc(N[C@@H]3CCCC(F)(F)[C@@H]3N)nn12 [Example 158, 2-{[(1R,2R)-2-amino-3,3-difluorocyclohexyl]amino}-N-(2-cyanothiophen-3-yl)pyrrolo[2,1-f][1,2,4]triazine-7-carboxamide formate] — 260-fold higher, 1.03 µM
- Cn1cc(NC(=O)c2ccc3cnc(N[C@@H]4CCCC(F)(F)[C@@H]4N)nn23)c(C(F)(F)F)n1 [Example 8, 2-{[(1R,2R)-2-amino-3,3-difluorocyclohexyl]amino}-N-[1-methyl-3-(trifluoromethyl)-1H-pyrazol-4-yl]pyrrolo[2,1-f][1,2,4]triazine-7-carboxamide trifluoroacetate] — 69-fold higher, 0.276 µM
- Cn1cc(NC(=O)c2ccc3cnc(N4CCNCC5(CC5)C4)nn23)c(C(F)(F)F)n1 [Example 9, 2-(5,8-diazaspiro[2.6]non-5-yl)-N-[1-methyl-3-(trifluoromethyl)-1H-pyrazol-4-yl]pyrrolo[2,1-f][1,2,4]triazine-7-carboxamide trifluoroacetate] — 1.8-fold higher, 0.007 µM
- N#Cc1ccccc1NC(=O)c1ccc2cnc(N3CCNCC4(CC4)C3)nn12 [Example 76, N-(2-cyanophenyl)-2-(5,8-diazaspiro[2.6]non-5-yl)pyrrolo[2,1-f][1,2,4]triazine-7-carboxamide trifluoroacetate] — 240-fold higher, 0.97 µM
- N[C@@H]1[C@H](Nc2ncc3ccc(C(=O)Nc4ccccc4Br)n3n2)CCCC1(F)F [Example 106, 2-{[(1R,2R)-2-amino-3,3-difluorocyclohexyl]amino}-N-(2-bromophenyl)pyrrolo[2,1-f][1,2,4]triazine-7-carboxamide trifluoroacetate] — 1500-fold higher, 5.81 µM
- Cn1cc(NC(=O)c2ccc3cnc(N[C@H]4CC(F)(F)CC[C@H]4N)nn23)c(C(F)(F)F)n1 (single isomer, unassigned) [Example 127, 2-{[(1S,2R)- or (1R,2S)-2-amino-5,5-difluorocyclohexyl]amino}-N-[1-methyl-3-(trifluoromethyl)-1H-pyrazol-4-yl]pyrrolo[2,1-f][1,2,4]triazine-7-carboxamide trifluoroacetate] — 4.2-fold higher, 0.017 µM
- N#Cc1ccccc1NC(=O)c1ccc2cnc(N[C@@H]3CCCC(F)(F)[C@@H]3N)nn12 [Example 136, 2-{[(1R,2R)-2-amino-3,3-difluorocyclohexyl]amino}-N-(2-cyanophenyl)pyrrolo[2,1-f][1,2,4]triazine-7-carboxamide trifluoroacetate] — 220-fold higher, 0.86 µM
- N[C@H]1CCCC[C@H]1Nc1ncc2ccc(C(=O)Nc3ccccc3C(F)F)n2n1 [Example 56, 2-{[(1R,2S)-2-aminocyclohexyl]amino}-N-[2-(difluoromethyl)phenyl]-pyrrolo[2,1-f][1,2,4]triazine-7-carboxamide trifluoroacetate] — 22-fold higher, 0.088 µM
- Cn1cc(NC(=O)c2ccc3cnc(N4C[C@@H]5CN[C@@H](C5)C4)nn23)c(C#N)n1 (single isomer, unassigned) [Example 113, N-(3-cyano-1-methyl-1H-pyrazol-4-yl)-2-[(1S,5S)- or (1R,5R)-3,6-diazabicyclo[3.2.1]oct-3-yl]pyrrolo[2,1-f][1,2,4]triazine-7-carboxamide] — 21-fold higher, 0.085 µM
- Cn1cc(NC(=O)c2ccc3cnc(N[C@@H]4CCCCNC4)nn23)c(C(F)(F)F)n1 (single isomer, unassigned) [Example 72, 2-[(3S)- or (3R)-azepan-3-ylamino]-N-[1-methyl-3-(trifluoromethyl)-1H-pyrazol-4-yl]pyrrolo[2,1-f][1,2,4]triazine-7-carboxamide trifluoroacetate] — the same, 0.004 µM
- N#Cc1ccccc1NC(=O)c1ccc2cnc(N3CCC[C@@H](N)C3)nn12 [Example 51, 2-[(3R)-3-aminopiperidin-1-yl]-N-(2-cyanophenyl)pyrrolo[2,1-f][1,2,4]triazine-7-carboxamide trifluoroacetate] — 39-fold higher, 0.157 µM
- O=C(Nc1ccsc1C(F)(F)F)c1ccc2cnc(N3C[C@@H]4CC[C@H]3CN4)nn12 (single isomer, unassigned) [Example 86, 2-[(1S,4S)- or (1R,4R)-2,5-diazabicyclo[2.2.2]oct-2-yl]-N-[2-(trifluoromethyl)thiophen-3-yl]pyrrolo[2,1-f][1,2,4]triazine-7-carboxamide trifluoroacetate] — 570-fold higher, 2.27 µM
- Cn1cc(NC(=O)c2ccc3cnc(N[C@@H]4CNC[C@H](F)C4)nn23)c(C(F)F)n1 [Example 155, N-[3-(difluoromethyl)-1-methyl-1H-pyrazol-4-yl]-2-{[(3S,5R)-5-fluoropiperidin-3-yl]amino}pyrrolo[2,1-f][1,2,4]triazine-7-carboxamide] — 1.8-fold higher, 0.007 µM
- N[C@H]1CCCC[C@H]1Nc1ncc2ccc(C(=O)Nc3cnn(CCO)c3)n2n1 [Example 167, 2-{[(1R,2S)-2-aminocyclohexyl]amino}-N-[1-(2-hydroxyethyl)-1H-pyrazol-4-yl]pyrrolo[2,1-f][1,2,4]triazine-7-carboxamide trifluoroacetate] — 44-fold higher, 0.178 µM
- Cn1cc(NC(=O)c2ccc3cnc(N[C@@H]4CC(F)(F)CC[C@@H]4N)nn23)c(C(F)(F)F)n1 (single isomer, unassigned) [Example 131, 2-{[(1S,2R)- or (1R,2S)-2-amino-5,5-difluorocyclohexyl]amino}-N-[1-methyl-3-(trifluoromethyl)-1H-pyrazol-4-yl]pyrrolo[2,1-f][1,2,4]triazine-7-carboxamide trifluoroacetate] — the same, 0.004 µM
- N#Cc1sccc1NC(=O)c1ccc2cnc(N[C@@H]3CCCC[C@@H]3N)nn12 [Example 21, 2-{[(1R,2S)-2-aminocyclohexyl]amino}-N-(2-cyanothiophen-3-yl)pyrrolo[2,1-f][1,2,4]triazine-7-carboxamide trifluoroacetate] — 4-fold lower, 0.001 µM
